How the values were obtained:
Assay type in all cases: cell-based
[1] = tested on: human dermal fibroblasts (HDFs); experiment: UCP1 protein immunostaining, comparison of four inhibitors (Example 16); settings: ALK5 inhibitor II 4 μM, LY2157299 8 μM; for UCP1 protein expression by immunostaining (induction into brown adipocytes): SB431542 4 μM, D4476 4 μM up to Day 9, day 14, FIG. 16A, 16B
Protocol: Thereafter, the cells were cultured in an adipocyte induction medium free of any compound of ALK5 inhibitor II, SB431542, LY215799 and D4476 during Day 9-Day 14. On day 14, the medium was removed by suction from each well, and the cells were washed with PBS(−).

[2] = tested on: human dermal fibroblasts (HDFs); experiment: BODIPY staining of lipid droplets (Example 7); settings: induction medium + T3 + Rosiglitazone, compounds 2 μM, day 14, FIG. 7A, 7B
Protocol: (§1) The next day, the culture supernatant was removed by suction and, as described in the Figure, a normal medium, an adipocyte induction medium, or an adipocyte induction medium added with each low-molecular-weight compound and the like was added at 500 μL/well. […] The concentrations of the additives are as follows: • T3: 1 nM • Rosiglitazone: 1 μM • […]: 2 μM • SB431541: 2 μM • ALK5 inhibitor II: 2 μM. The culture medium was substituted by a fresh one every 3-4 days and the cells were cultured up to day 14. […] The cells were photographed at a magnification of 200 with a fluorescence microscope and the fluorescence intensity was measured.

[3] = tested on: human dermal fibroblasts (HDFs); experiment: AdipoQ gene mRNA by real time RT-PCR (Example 6); settings: induction medium + T3 + Rosiglitazone, D4476, SB431542, ALK5 Inhibitor II 2 μM, PD0325901 1 μM, day 14, FIG. 6
Protocol: This was seeded in a 24-well plate at a concentration of 1×10^4 cells/well (day 0), and culturing was started at 5% CO2/95% humid air, 37° C. The next day, the culture supernatant was removed by suction and, as described in the Figure, a normal medium, an adipocyte induction medium, or an adipocyte induction medium added with each low-molecular-weight compound and the like was added at 500 μL/well. […] The concentrations of the additives are as follows: • T3: 1 nM • Rosiglitazone: 1 μM • D4476: 2 μM. • Pifithrin alpha [p53 inhibitor]: 5 μM • PD0325901: 1 μM • SB431542: 2 μM • ALK5 Inhibitor II: 2 μM. The culture medium was substituted by a fresh one every 3-4 days and the cells were cultured up to day 14.

[4] = tested on: human dermal fibroblasts (HDFs); experiment: UCP1 gene mRNA, comparison of four inhibitors at 4-16 μM (Example 15); settings: for induction efficiency into brown adipocytes (order): compound at 4, 8, 12 or 16 μM up to Day 9, UCP1 mRNA on day 14, FIG. 15; for UCP1 gene expression (conversion to brown adipocytes): compound at 4, 8, 12 or 16 μM up to Day 9, then without compound Day 9-14, FIG. 15
Protocol: (Day −1). In the control (Ctrl) group, the culture supernatant of the next day (Day 0) was removed by suction and the cells were cultured in a normal medium up to day 14 while substituting the medium with a fresh one once every other day. In groups other than the control (Ctrl) group, the culture supernatant was removed by suction on day 0, an adipocyte induction medium or an adipocyte induction medium added with any of ALK5 inhibitor II, SB431542, LY2157299 and D4476 at a concentration of 4 μM, 8 μM, 12 μM or 16 μM respectively was added at 1 mL/well.
Thereafter, the cells were cultured in an adipocyte induction medium free of any compound of ALK5 inhibitor II, SB431542, LY215799 and D4476 during Day 9-Day 14.

[5] = tested on: human dermal fibroblasts (HDFs); experiment: CIDEA gene mRNA by real time RT-PCR (Example 4); settings: induction medium + T3 + Rosiglitazone, compounds 2 μM, day 14, FIG. 4
Protocol: The next day, the culture supernatant was removed by suction and, as described in the Figure, a normal medium, an adipocyte induction medium, or an adipocyte induction medium added with each compound and the like was added at 500 μL/well. […] The concentrations of the additives are as follows: • T3: 1 nM • Rosiglitazone: 1 μM • D4476: 2 μM • Pifithrin alpha [p53 inhibitor]: 5 μM • SB431542: 2 μM • ALK5 Inhibitor II: 2 μM. The culture medium was substituted by a fresh one every 3 4 days and the cells were cultured up to day 14.

[6] = tested on: human dermal fibroblasts (HDFs); experiment: UCP1 protein immunostaining, fluorescence intensity (Example 8); settings: induction medium + T3 + Rosiglitazone, D4476, SB431541, ALK5 inhibitor II, FSK 2 μM, PD0325901 1 μM, day 14, FIG. 8A-C
Protocol: as §1, with “each” for “each low-molecular-weight”, “II: 2 μM • PD0325901: 1 μM • Forskolin (FSK):” for “II:”

[7] = tested on: human dermal fibroblasts (HDFs); experiment: Oil Red O staining of fibroblasts cultured with compounds (Example 1); settings: adipocyte induction medium with T3 1 nM and Rosiglitazone 1 μM, D4476 2 μM, SB431542 2 μM, ALK5 Inhibitor II 2 M, Pifithrin alpha 5 μM, day 14, FIG. 1
Protocol: The next day, the culture supernatant was removed by suction and, as described in the Figure, a normal medium, an adipocyte induction medium, or an adipocyte induction medium added with the compound and the like was added at 500 μL/well.
The adipocyte induction medium is a 10% FBS-added DMEM+MDI medium (10% FBS-added DMEM supplemented with 0.5 mM isobutylmethylxanthine (IBMX), 0.5 μM dexamethason and 1 μg/mL Insulin).
The concentrations of the additives are as follows: • T3: 1 nM • Rosiglitazone: 1 μM • D4476: 2 μM • Pifithrin alpha [p53 inhibitor]: 5 μM • SB431542: 2 μM • ALK5 Inhibitor II: […].
The culture medium was substituted by a fresh one every 3-4 days and the cells were cultured up to day 14.
After washing 3 times with sterile distilled water, Oil Red O staining solution was added, and the mixture was incubated at room temperature for 15 min. Then, the cells were washed with sterile distilled water and photographed at a magnification of 100 with a phase contrast microscope.

| SMILES | UCP1 protein expression by immunostaining (induction into brown adipocytes) [1] | strength of induction of UCP1 expression (order) ([1]; immunostaining day 14, FIG. 16) | lipid droplets stained with BODIPY (conversion to brown adipocytes) [2] | mRNA expression of AdipoQ gene (conversion to brown adipocytes) [3] | induction efficiency into brown adipocytes (order) [4] | UCP1 gene expression (conversion to brown adipocytes) [4] | mRNA expression of CIDEA gene (conversion to brown adipocytes) [5] | UCP1 protein expression by immunostaining (conversion to brown adipocytes) [6] | Oil Red O staining [7] |
| --- | --- | --- | --- | --- | --- | --- | --- | --- | --- |
| Cc1cccc(-c2n[nH]cc2-c2ccc3ncccc3n2)n1 [ALK5 Inhibitor II, 2-(3-(6-Methylpyridin-2-yl)-1H-pyrazol-4-yl)-1,5-naphthyridine] | induced into brown adipocytes expressing UCP1 protein | most strongly induced | converted to brown adipocytes having lipid droplets stained with BODIPY | converted to brown adipocytes expressing mRNA of AdipoQ gene | most strongly induced into brown adipocytes | converted to brown adipocytes strongly expressing UCP1 gene | converted to brown adipocytes expressing mRNA of CIDEA gene | converted to brown adipocytes expressing UCP1 protein | Remarkable Oil Red O staining |
| NC(=O)c1ccc(-c2nc(-c3ccc4c(c3)OCCO4)c(-c3ccccn3)[nH]2)cc1 [D4476, 4-[4-(2,3-dihydro-1,4-benzodioxin-6-yl)-5-(2-pyridlnyl-)1H-imidazol-2-yl]-benzamide] | induced into brown adipocytes expressing UCP1 protein |  | converted to brown adipocytes having lipid droplets stained with BODIPY | converted to brown adipocytes expressing mRNA of AdipoQ gene | ALK5 inhibitor II>LY2157299>SB431541>D4476 | converted to brown adipocytes strongly expressing UCP1 gene | converted to brown adipocytes expressing mRNA of CIDEA gene | converted to brown adipocytes expressing UCP1 protein | Remarkable Oil Red O staining |
